Test results taken from publication PMC8232621, “Antimicrobial Activity of a Library of Thioxanthones and Their Potential as Efflux Pump Inhibitors” (Pharmaceuticals, 2021).

Tested on: the used strains
Experiment: Antibacterial activity (MIC), strains not specified
Assay type: cell-based
Conditions: concentrations tested; results not shown
Procedure: The minimum inhibitory concentration (MIC) for each compound was determined by broth microdilution method in a 96-well plate according to the Clinical and Laboratory Standard Institute (CLSI) guidelines. The medium used was MHB II. […] DMSO was used in subinhibitory concentrations (1% v/v). The MIC was determined by visual inspection.

In the case of `NS(=O)(=O)c1ccc(C(=O)O)cc1` [4-sulfamoylbenzoic acid], the MIC is reported as “did not display an observable MIC”.
